Assay [1] has as its target T1, MBP-FYVE (AdcA FYVE domain) (Dictyostelium discoideum, UniProt Q54CH1).
T1 sequence (Q54CH1 458-530): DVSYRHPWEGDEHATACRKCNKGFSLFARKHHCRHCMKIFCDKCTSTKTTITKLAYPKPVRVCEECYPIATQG
Briefly: intrinsic tryptophan fluorescence titration. Format: binding. The note with it: read-out: affinity.

The target in another assay is T2, ArfA-His6 (Dictyostelium discoideum, UniProt O00909 1-182).
T2 construct: Preincubated with 100 µM GDPβS, 100 µM GTPγS or no extra nucleotide before the pull-down; The nucleotide state is told by the assay; also called Dd-ArfA; ADP-ribosylation factor ArfA; source: E. coli BL21(DE3), purified (Ni-NTA agarose); not shown: His6, C-terminal, kept
T2 sequence (O00909 whole entry): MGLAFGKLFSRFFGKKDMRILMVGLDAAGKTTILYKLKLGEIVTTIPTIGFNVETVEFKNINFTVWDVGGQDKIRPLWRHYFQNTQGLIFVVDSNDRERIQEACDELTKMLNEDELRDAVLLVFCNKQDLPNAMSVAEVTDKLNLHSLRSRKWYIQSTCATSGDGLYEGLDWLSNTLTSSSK
In words: pull-down; GST-AdcAC on glutathione Sepharose beads, ArfA-His6 preincubated 1 hr at 4°C with 100 µM GDPβS or no extra nucleotide, then overnight at 4°C; 20 mM Tris pH 7.5, 25 mM NaCl, 2 mM DTT, 2 mM EDTA, 2.5 mM MgCl2, 1 mM ATP, 0.2% Triton X-100; Western blot with anti-Arf antibody. The note with it: both partners purified. For orientation: In western blotting, separated proteins are transferred to a membrane and probed.

As to `O=P(O)(O)O[C@@H]1[C@H](O)[C@H](OP(=O)(O)O)[C@@H](O)[C@H](O)[C@H]1O` [Ins(1,3)P2], in assay [1], the Kd was roughly 20 µM.

B1: GST-AdcAC (C domain of the arrestin core of AdcA, amino acids 311 to 459, fused to GST) (domain or fragment, Dictyostelium discoideum, UniProt Q54CH1 311-459, looked up)
chain: MLTKGKLHVKTWLNKNAYFPGETLVAKMKANNTSIKPTRKISLVVHHTMQLKTRLYHRCITNAIYKQQYDGFQPCFYGKRYLPFSIPVDLKPSSSLGKHITSSYLLELECDIPMAIDLSVTLPLTLFAPQFLYSTVPSQPPGTPLPPDV
notes: AdcA (arrestin-domain containing protein A) of Dictyostelium discoideum, whole protein 580 amino acids; C domain of the arrestin core, amino acids 311 to 459, in pGEX-KG; also called GST-AdcC; C-terminal domain of the AdcA arrestin core; not shown: GST, N-terminal, kept
B1: the binding result with ArfA-His6 is on record as “binds”.

(Values after PMC3001460, “FYVE-Dependent Endosomal Targeting of an Arrestin-Related Protein in Amoeba” (PLoS ONE, 2010).)
